Reference: patent US9676714B2, “Sulfonylindole derivatives and method for preparing the same” (Daewoong Pharmaceutical Co., Ltd., priority 2013, dated 2017)
Counter-ions that a name gives are not always drawn.

Target: T1, proton pump (H+/K+-ATPase) (Sus scrofa, UniProt P19156)
T1 construct: Gastric vesicles were prepared from hog stomach via centrifugal separation; from tissue; host or cells: hog stomach (gastric vesicles, method of Rabon et al. 1988)
Assay: Measurement of inhibitory effects on proton pump (H+/K+-ATPase) activities
Format: biochemical
Conditions: hog gastric vesicles, K+-specific H+/K+-ATPase activity, Tris-HCl buffer pH 7.4, 37° C. for 40 minutes, malachite green Pi readout
Outline: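 Hog gastric vesicles in 60 mmol/l Tris-HCl pH 7.4 with 0.5% DMSO were treated with compounds at room temperature; reaction was started with 10 μl of 10 mmol/l ATP stock. Released Pi was read at 570 nm, K+-specific activity taken as the ±K+ difference. IC50 from 4-parameter logistic fit.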

T1 sequence (P19156 whole entry): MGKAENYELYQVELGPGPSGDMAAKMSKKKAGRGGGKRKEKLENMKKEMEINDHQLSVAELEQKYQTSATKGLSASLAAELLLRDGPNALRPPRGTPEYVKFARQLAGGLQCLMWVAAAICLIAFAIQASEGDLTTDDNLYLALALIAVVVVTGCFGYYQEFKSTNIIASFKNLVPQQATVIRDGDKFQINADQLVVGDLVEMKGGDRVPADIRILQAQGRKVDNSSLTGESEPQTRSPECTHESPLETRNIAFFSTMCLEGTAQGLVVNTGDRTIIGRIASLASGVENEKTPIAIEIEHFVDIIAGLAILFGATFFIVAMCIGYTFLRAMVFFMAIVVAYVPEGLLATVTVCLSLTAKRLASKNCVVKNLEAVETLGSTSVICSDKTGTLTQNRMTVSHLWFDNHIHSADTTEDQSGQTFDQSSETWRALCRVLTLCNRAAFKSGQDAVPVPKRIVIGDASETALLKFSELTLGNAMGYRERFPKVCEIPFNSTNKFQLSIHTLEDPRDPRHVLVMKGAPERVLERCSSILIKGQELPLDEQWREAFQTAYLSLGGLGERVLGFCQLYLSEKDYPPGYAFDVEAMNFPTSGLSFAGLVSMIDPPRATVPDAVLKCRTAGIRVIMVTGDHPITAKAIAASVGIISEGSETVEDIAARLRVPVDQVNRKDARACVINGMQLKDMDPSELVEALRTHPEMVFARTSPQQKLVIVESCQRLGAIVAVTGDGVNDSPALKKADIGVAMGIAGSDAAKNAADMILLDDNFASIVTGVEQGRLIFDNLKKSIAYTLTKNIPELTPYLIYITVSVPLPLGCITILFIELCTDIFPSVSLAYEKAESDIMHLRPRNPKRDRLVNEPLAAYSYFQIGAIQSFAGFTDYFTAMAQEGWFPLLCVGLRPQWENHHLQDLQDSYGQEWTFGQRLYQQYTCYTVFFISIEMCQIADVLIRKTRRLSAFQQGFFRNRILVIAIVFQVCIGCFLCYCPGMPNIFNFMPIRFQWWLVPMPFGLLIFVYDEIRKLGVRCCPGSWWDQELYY
T1 sequence (P18434 whole entry partner): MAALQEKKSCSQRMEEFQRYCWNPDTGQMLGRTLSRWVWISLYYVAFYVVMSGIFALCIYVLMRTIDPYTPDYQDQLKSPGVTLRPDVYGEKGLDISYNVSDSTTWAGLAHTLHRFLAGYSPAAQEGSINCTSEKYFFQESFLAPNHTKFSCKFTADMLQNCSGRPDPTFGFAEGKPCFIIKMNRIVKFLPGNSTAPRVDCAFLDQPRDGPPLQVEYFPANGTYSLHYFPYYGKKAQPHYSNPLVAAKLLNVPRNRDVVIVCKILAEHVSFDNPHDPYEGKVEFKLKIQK

| Structure (SMILES) | IC50 [µM] |
| --- | --- |
| CNCc1cn(S(=O)(=O)c2cccnc2)c2cc(Nc3ccc(Cl)cc3C#N)ccc12 [Example 30, 5-chloro-2-((3-((methylamino)methyl)-1-(pyridin-3-ylsulfonyl)-1H-indol-6-yl)amino)benzonitrile hydrochloride] | 1.14 |
| CNCc1cn(S(=O)(=O)c2cccnc2)c2cc(-c3ccccc3)ccc12 [Example 243, N-methyl-1-(6-phenyl-1-(pyridin-3-ylsulfonyl)-1H-indol-3-yl)methanamine] | 7.14 |
| CNCc1cn(S(=O)(=O)c2cccnc2)c2cc(Nc3cc(F)c(Br)cc3F)ccc12 [Example 79, N-(4-bromo-2,5-difluorophenyl)-3-((methylamino)methyl)-1-(pyridin-3-ylsulfonyl)-1H-indol-6-amine hydrochloride] | 1.38 |
| CNCc1cn(S(=O)(=O)c2cccnc2)c2cc(Nc3cc(-c4ccccc4)ccc3C)ccc12 [Example 16, N-(4-methyl-[1,1′-biphenyl]-3-yl)-3-((methylamino)methyl)-1-(pyridin-3-ylsulfonyl)-1H-indol-6-amine hydrochloride] | 0.78 |
| CNCc1cn(S(=O)(=O)c2cccnc2)c2cc(Nc3ccc(Oc4ccccc4)cc3)ccc12 [Example 17, 3-((methylamino)methyl)-N-(4-phenoxyphenyl)-1-(pyridin-3-ylsulfonyl)-1H-indol-6-amine hydrochloride] | 2.25 |
| CNCc1cn(S(=O)(=O)c2cccc(F)c2)c2cc(Nc3ccc(C)cc3Cl)ncc12 [Example 359, N-(2-chloro-4-methylphenyl)-1-((3-fluorophenyl)sulfonyl)-3-((methylamino)methyl)-1H-pyrrolo[3,2-c]pyridin-6-amine hydrochloride] | 18.3 |
| CNCc1cn(S(=O)(=O)c2cccc(F)c2)c2cc(Nc3ccc(Cl)cc3C)cnc12 [Example 341, N-(4-chloro-2-methylphenyl)-1-((3-fluorophenyl)sulfonyl)-3-((methylamino)methyl)-1H-pyrrolo[3,2-b]pyridin-6-amine hydrochloride] | 0.38 |
| COc1ccc(Nc2ccc3c(CN4CCCC4)cn(S(=O)(=O)c4cccc(C(F)(F)F)c4)c3c2)c(Cl)n1 [Example 318, N-(2-chloro-6-methoxypyridin-3-yl)-3-(pyrrolidin-1-ylmethyl)-1-((3-(trifluoromethyl)phenyl)sulfonyl)-1H-indol-6-amine] | 4.25 |
| CNCc1cn(S(=O)(=O)c2cccnc2)c2cc(Nc3ncccc3C)ccc12 [Example 98, 3-((methylamino)methyl)-N-(3-methylpyridin-2-yl)-1-(pyridin-3-ylsulfonyl)-1H-indol-6-amine hydrochloride] | 1.92 |
| CNCc1cn(S(=O)(=O)c2cccnc2)c2cc(Nc3cccc(C)c3F)ccc12 [Example 20, N-(2-fluoro-3-methylphenyl)-3-((methylamino)methyl)-1-(pyridin-3-ylsulfonyl)-1H-indol-6-amine hydrochloride] | 0.38 |
| CNCc1cn(S(=O)(=O)c2cccnc2)c2cc(Nc3ccc(F)c(F)c3F)ccc12 [Example 67, 3-((methylamino)methyl)-1-(pyridin-3-ylsulfonyl)-N-(2,3,4-trifluorophenyl)-1H-indol-6-amine hydrochloride] | 0.38 |
| CNCc1cn(S(=O)(=O)c2cccnc2)c2cc(Nc3c(F)cc(OC)cc3F)ccc12 [Example 88, N-(2,6-difluoro-4-methoxyphenyl)-3-((methylamino)methyl)-1-(pyridin-3-ylsulfonyl)-1H-indol-6-amine hydrochloride] | 0.43 |
| CNCc1cn(S(=O)(=O)c2cccc(OC(F)F)c2)c2cc(Nc3ccc(C)cc3F)ccc12 [Example 174, 1-((3-(difluoromethoxy)phenyl)sulfonyl)-N-(2-fluoro-4-methylphenyl)-3-((methylamino)methyl)-1H-indol-6-amine hydrochloride] | 0.02 |
| CNCc1cn(S(=O)(=O)c2ccc(C)cc2)c2cc(Nc3ccc(C)cc3F)ccc12 [Example 229, N-(2-fluoro-4-methylphenyl)-3-((methylamino)methyl)-1-tosyl-1H-indol-6-amine hydrochloride] | 1.11 |
